Like-named read-outs stand apart in the source and are kept apart here.
Experiments:
Test in all cases: Test C pre/postemergence
Type in all cases: in vivo
[1] = test system: Surinam grass (Brachiaria decumbens); conditions: Urochloa decumbens; for pest or weed control at 125 g/ha: 125 g ai/ha; for pest or weed control at 500 g/ha: 500 g ai/ha; for pest or weed control at 62 g/ha: 62 g ai/ha; for pest or weed control at 250 g/ha: 250 g ai/ha
Procedure, shortened: (§1)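 Percent control is a visual rating (0 none, 100 complete) taken against untreated plants after 12 to 14 days of greenhouse growth. Applications were made preemergence to seeded pots and postemergence to plants at the 1- to 4-leaf stage, in a non-phytotoxic surfactant-containing solvent.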

[2] = test system: bermudagrass (Cynodon dactylon); conditions: Cynodon dactylon; for pest or weed control at 62 g/ha: 62 g ai/ha; for pest or weed control at 125 g/ha: 125 g ai/ha; for pest or weed control at 125 g/ha / pest or weed control at 250 g/ha / pest or weed control at 500 g/ha: scale 0 to 100; for pest or weed control at 250 g/ha: 250 g ai/ha; for pest or weed control at 500 g/ha: 500 g ai/ha
Procedure, shortened: as §1

[3] = test system: common (oilseed) sunflower (Helianthus annuus); conditions: Helianthus annuus, pre-emergence, Preemergence, read-out: Plant response rating, Sunflower
Procedure, shortened: as §1

[4] = test system: crabgrass (Digitaria sanguinalis); conditions: Digitaria sanguinalis; for pest or weed control at 62 g/ha: 62 g ai/ha; for pest or weed control at 125 g/ha: 125 g ai/ha; for pest or weed control at 250 g/ha: 250 g ai/ha; for pest or weed control at 500 g/ha: 500 g ai/ha
Procedure, shortened: as §1

[5] = test system: giant foxtail (Setaria faberii); conditions: Setaria faberi; for pest or weed control at 125 g/ha: 125 g ai/ha; for pest or weed control at 500 g/ha: 500 g ai/ha; for pest or weed control at 62 g/ha: 62 g ai/ha; for pest or weed control at 250 g/ha: 250 g ai/ha
Procedure, shortened: as §1

[6] = test system: goosegrass (Eleusine indica); conditions: Eleusine indica; for pest or weed control at 62 g/ha: 62 g ai/ha; for pest or weed control at 125 g/ha: 125 g ai/ha; for pest or weed control at 250 g/ha: 250 g ai/ha; for pest or weed control at 500 g/ha: 500 g ai/ha
Procedure, shortened: as §1

[7] = test system: johnsongrass (Sorghum halepense); conditions: Sorghum halepense, post-emergence, Postemergence, scale 0 to 100 (0 no effect, 100 complete control), read-out: Johnsongrass plant response rating
Procedure, shortened: as §1

[8] = post-emergence, Postemergence, scale 0 to 100 (0 no effect, 100 complete control), read-out: Surinam Grass plant response rating
[9] = post-emergence, Postemergence, scale 0 to 100, read-out: Plant response rating, Surinam Grass
[10] = pre-emergence, Preemergence, scale 0 to 100, read-out: Plant response rating, Surinam Grass
[11] = post-emergence, Postemergence, read-out: Plant response rating, Bermudagrass
[12] = pre-emergence, Preemergence, read-out: Plant response rating, Bermudagrass
[13] = post-emergence, Postemergence, scale 0 to 100 (0 no effect, 100 complete control), read-out: Crabgrass plant response rating
[14] = post-emergence, Postemergence, scale 0 to 100, read-out: Plant response rating, Crabgrass
[15] = pre-emergence, Preemergence, scale 0 to 100, read-out: Plant response rating, Crabgrass
[16] = post-emergence, Postemergence, scale 0 to 100 (0 no effect, 100 complete control), read-out: Foxtail, Giant plant response rating
[17] = post-emergence, Postemergence, scale 0 to 100, read-out: Plant response rating, Foxtail, Giant
[18] = pre-emergence, Preemergence, scale 0 to 100, read-out: Plant response rating, Foxtail, Giant
[19] = post-emergence, Postemergence, scale 0 to 100 (0 no effect, 100 complete control), read-out: Goosegrass plant response rating
[20] = post-emergence, Postemergence, scale 0 to 100, read-out: Plant response rating, Goosegrass
[21] = pre-emergence, Preemergence, scale 0 to 100, read-out: Plant response rating, Goosegrass

CCOC(=O)c1nc(C2CC2)nc(N)c1Br [Compound 1, ethyl 6-amino-5-bromo-2-cyclopropyl-4-pyrimidinecarboxylate]
50%: pest or weed control at 125 g/ha [2, 12]
60%: pest or weed control at 125 g/ha [4, 15]
35%: pest or weed control at 125 g/ha [1, 10]
40%: pest or weed control at 62 g/ha [5, 16] | pest or weed control at 250 g/ha [6, 20]
65%: pest or weed control at 125 g/ha [5, 16]
90%: pest or weed control at 125 g/ha [1, 8] | pest or weed control at 62 g/ha [1, 8] | pest or weed control at 250 g/ha [1, 9] | pest or weed control at 250 g/ha [1, 10] | pest or weed control at 500 g/ha [1, 10] | pest or weed control at 125 g/ha [2, 11] | pest or weed control at 250 g/ha [2, 11] | pest or weed control at 500 g/ha [2, 11] | pest or weed control at 500 g/ha [2, 12] | pest or weed control at 500 g/ha [4, 14] | pest or weed control at 250 g/ha [4, 15] | pest or weed control at 500 g/ha [5, 17] | pest or weed control at 250 g/ha [5, 18] | pest or weed control at 500 g/ha [5, 18]
30%: pest or weed control at 62 g/ha [4, 13] | pest or weed control at 125 g/ha [5, 18] | pest or weed control at 62 g/ha ([7]; 62 g ai/ha) | pest or weed control at 125 g/ha ([7]; 125 g ai/ha)
100%: pest or weed control at 125 g/ha ([3]; 125 g ai/ha, scale 0 to 100) | pest or weed control at 250 g/ha ([3]; 250 g ai/ha, scale 0 to 100) | pest or weed control at 500 g/ha ([3]; 500 g ai/ha, scale 0 to 100)
95%: pest or weed control at 500 g/ha [1, 9] | pest or weed control at 500 g/ha [4, 15]
85%: pest or weed control at 125 g/ha [4, 13] | pest or weed control at 250 g/ha [4, 14]
80%: pest or weed control at 62 g/ha ([3]; 62 g ai/ha, scale 0 to 100, 0 no effect, 100 complete control) | pest or weed control at 250 g/ha [5, 17]
70%: pest or weed control at 62 g/ha ([2]; post-emergence, Postemergence, scale 0 to 100 (0 no effect, 100 complete control), read-out: Bermudagrass plant response rating) | pest or weed control at 250 g/ha [2, 12] | pest or weed control at 500 g/ha [6, 20] | pest or weed control at 500 g/ha [6, 21]
0%: pest or weed control at 62 g/ha ([1]; pre-emergence, Preemergence, scale 0 to 100, 0 no effect, 100 complete control, read-out: Plant response rating, Surinam Grass) | pest or weed control at 62 g/ha ([2]; pre-emergence, Preemergence, scale 0 to 100, 0 no effect, 100 complete control, read-out: Plant response rating, Bermudagrass) | pest or weed control at 62 g/ha ([5]; pre-emergence, Preemergence, scale 0 to 100, 0 no effect, 100 complete control, read-out: Plant response rating, Foxtail, Giant) | pest or weed control at 62 g/ha [6, 19] | pest or weed control at 125 g/ha [6, 19] | pest or weed control at 62 g/ha ([6]; pre-emergence, Preemergence, scale 0 to 100, 0 no effect, 100 complete control, read-out: Plant response rating, Goosegrass) | pest or weed control at 125 g/ha [6, 21]
10%: pest or weed control at 62 g/ha ([4]; pre-emergence, Preemergence, scale 0 to 100, 0 no effect, 100 complete control, read-out: Plant response rating, Crabgrass) | pest or weed control at 250 g/ha [6, 21]
